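How tested: cells in 96-well plates exposed to compound for 48 hours at five concentrations. The concentration for 50% growth inhibition is given as GI50.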 Calls of active or inactive are those of the source. No stated cut-off is given here; in the data, active = GI50 up to about 1.1 µM and inactive = higher.
Key:
Experiment in all cases: NCI anticancer screen, dose series, 48 h
U-251 = test system: U-251
SK-OV-3 = test system: SK-OV-3
SNB-75 = test system: SNB-75
NCI-H460 = test system: NCI-H460
NCI-H522 = test system: NCI-H522
M14 = test system: M14
786-0 = test system: 786-0
IGROV-1 = test system: IGROV-1
LOX IMVI = test system: LOX IMVI
HL-60 = test system: HL-60
HOP-62 = test system: HOP-62
MOLT-4 = test system: MOLT-4
SR = test system: SR
SNB-19 = test system: SNB-19
SNB-78 = test system: SNB-78
SK-MEL-2 = test system: SK-MEL-2
COLO 205 = test system: COLO 205
HCC 2998 = test system: HCC 2998
NCI-H23 = test system: NCI-H23
UO-31 = test system: UO-31
RXF 393 = test system: RXF 393
HOP-92 = test system: HOP-92
LXFL 529 = test system: LXFL 529
XF498 = test system: XF498
KM-20L2 = test system: KM-20L2
CAKI-1 = test system: CAKI-1
OVCAR-8 = test system: OVCAR-8
A549 = test system: A549
SK-MEL-28 = test system: SK-MEL-28
OVCAR-4 = test system: OVCAR-4
M19-MEL = test system: M19-MEL
UACC-257 = test system: UACC-257
SF-295 = test system: SF-295
HT-29 = test system: HT-29
ACHN = test system: ACHN
SW-620 = test system: SW-620
TK-10 = test system: TK-10
CCRF-CEM = test system: CCRF-CEM
UACC-62 = test system: UACC-62
NCI-H226 = test system: NCI-H226
OVCAR-5 = test system: OVCAR-5
KM12 = test system: KM12
HCT-15 = test system: HCT-15
K562 = test system: K562
RPMI-8226 = test system: RPMI-8226
DLD-1 = test system: DLD-1
DMS-273 = test system: DMS-273
HCT-116 = test system: HCT-116
DMS-114 = test system: DMS-114
SN12C = test system: SN12C
EKVX = test system: EKVX
SF-268 = test system: SF-268
SK-MEL-5 = test system: SK-MEL-5
SF-539 = test system: SF-539
Malme-3M = test system: Malme-3M
A498 = test system: A498
OVCAR-3 = test system: OVCAR-3
NCI/ADR-RES = test system: NCI/ADR-RES
HOP-18 = test system: HOP-18
MCF7 = test system: MCF7

Measured: GI50

CC(C)C(/C=C/c1ccc(Br)cc1)=N\NC(N)=O
> 100 µM: HCT-15
inactive: U-251 > 100 µM | SK-OV-3 > 100 µM | SNB-75 > 100 µM | NCI-H460 > 100 µM | NCI-H522 70.3 µM | M14 > 100 µM | 786-0 > 100 µM | IGROV-1 > 100 µM | LOX IMVI > 100 µM | HL-60 > 100 µM | HOP-62 > 100 µM | MOLT-4 > 100 µM | SR > 100 µM | SNB-19 > 100 µM | SNB-78 > 100 µM | SK-MEL-2 > 100 µM | COLO 205 > 100 µM | HCC 2998 12.3 µM | NCI-H23 > 100 µM | UO-31 18.2 µM | RXF 393 > 100 µM | HOP-92 > 100 µM | LXFL 529 56.4 µM | XF498 > 100 µM | KM-20L2 > 100 µM | CAKI-1 > 100 µM | OVCAR-8 > 100 µM | A549 > 100 µM | SK-MEL-28 > 100 µM | OVCAR-4 > 100 µM | M19-MEL 12.2 µM | UACC-257 > 100 µM | SF-295 > 100 µM | HT-29 > 100 µM | ACHN > 100 µM | SW-620 > 100 µM | TK-10 > 100 µM | CCRF-CEM > 100 µM | UACC-62 > 100 µM | NCI-H226 > 100 µM | OVCAR-5 > 100 µM | KM12 > 100 µM | K562 > 100 µM | RPMI-8226 > 100 µM | DLD-1 > 100 µM | DMS-273 > 100 µM | HCT-116 > 100 µM | DMS-114 > 100 µM | SN12C > 100 µM | EKVX > 100 µM | SF-268 > 100 µM | SK-MEL-5 > 100 µM | SF-539 > 100 µM

Cc1[nH]c(=O)nc(N/N=C/c2ccc(O)cc2)c1C(=O)Nc1ccc(O)cc1
inactive: SK-OV-3 > 100 µM | SNB-75 > 100 µM | NCI-H460 > 100 µM | NCI-H522 > 100 µM | M14 > 100 µM | 786-0 > 100 µM | IGROV-1 > 100 µM | HL-60 > 100 µM | HOP-62 > 100 µM | MOLT-4 > 100 µM | SR > 100 µM | SNB-78 72.8 µM | SK-MEL-2 > 100 µM | COLO 205 > 100 µM | HCC 2998 > 100 µM | NCI-H23 > 100 µM | UO-31 > 100 µM | HOP-92 > 100 µM | LXFL 529 > 100 µM | XF498 > 100 µM | CAKI-1 > 100 µM | Malme-3M > 100 µM | SK-MEL-28 > 100 µM | OVCAR-4 > 100 µM | M19-MEL > 100 µM | A498 > 100 µM | CCRF-CEM > 100 µM | UACC-62 > 100 µM | NCI-H226 > 100 µM | K562 > 100 µM | RPMI-8226 > 100 µM | DLD-1 > 100 µM | DMS-273 > 100 µM | HCT-116 > 100 µM | DMS-114 > 100 µM | SN12C > 100 µM | SF-268 > 100 µM | SF-539 > 100 µM

CN(c1ccccc1)c1c(-c2ccccc2)c(=O)oc2c1ccc1occc12
active: NCI-H226 0.348 µM
> 88.5 µM: HCT-15
inactive: U-251 > 100 µM | SK-OV-3 > 100 µM | SNB-75 > 100 µM | NCI-H460 > 76.7 µM | NCI-H522 > 100 µM | IGROV-1 > 100 µM | LOX IMVI > 100 µM | HL-60 39.7 µM | HOP-62 > 100 µM | MOLT-4 22.2 µM | SNB-19 > 100 µM | SNB-78 > 100 µM | OVCAR-3 > 100 µM | SK-MEL-2 > 100 µM | COLO 205 > 100 µM | HCC 2998 > 100 µM | NCI-H23 > 100 µM | UO-31 > 100 µM | RXF 393 > 92.3 µM | NCI/ADR-RES > 100 µM | CAKI-1 36.2 µM | OVCAR-8 > 100 µM | Malme-3M > 100 µM | A549 > 100 µM | SK-MEL-28 > 100 µM | OVCAR-4 > 81.8 µM | M19-MEL > 100 µM | A498 > 100 µM | UACC-257 > 100 µM | SF-295 > 100 µM | HT-29 > 95.7 µM | HOP-18 > 100 µM | SW-620 > 100 µM | CCRF-CEM > 100 µM | UACC-62 > 100 µM | KM12 > 100 µM | K562 > 100 µM | MCF7 > 100 µM | DLD-1 > 100 µM | DMS-273 > 100 µM | HCT-116 > 100 µM | DMS-114 > 100 µM | SN12C > 100 µM | EKVX > 100 µM | SF-268 > 100 µM | SK-MEL-5 > 100 µM | SF-539 > 100 µM

CC(=O)O[C@H]1CCC2[C@@H]3CCC4C(=O)c5oncc5C[C@]4(C)C3CC[C@@]21C (stereo partly drawn)
inactive: U-251 > 100 µM | SK-OV-3 > 100 µM | SNB-75 50.2 µM | NCI-H460 > 100 µM | M14 > 100 µM | 786-0 > 100 µM | IGROV-1 > 100 µM | LOX IMVI 28 µM | HL-60 > 100 µM | HOP-62 > 100 µM | MOLT-4 > 100 µM | SNB-19 > 10 µM | SNB-78 49 µM | OVCAR-3 > 100 µM | SK-MEL-2 > 100 µM | COLO 205 > 100 µM | HCC 2998 > 100 µM | NCI-H23 > 100 µM | UO-31 > 10 µM | RXF 393 > 100 µM | HOP-92 > 100 µM | LXFL 529 > 100 µM | XF498 > 100 µM | KM-20L2 > 100 µM | OVCAR-8 > 100 µM | Malme-3M > 100 µM | A549 > 100 µM | SK-MEL-28 > 100 µM | OVCAR-4 5.21 µM | M19-MEL > 100 µM | A498 21.7 µM | UACC-257 > 100 µM | SF-295 39.5 µM | HT-29 > 100 µM | ACHN 63 µM | SW-620 > 100 µM | TK-10 > 100 µM | CCRF-CEM > 100 µM | UACC-62 60.3 µM | NCI-H226 > 10 µM | OVCAR-5 > 100 µM | KM12 > 100 µM | K562 > 100 µM | RPMI-8226 > 100 µM | DLD-1 > 100 µM | DMS-273 > 100 µM | HCT-116 > 10 µM | DMS-114 > 100 µM | SN12C > 100 µM | EKVX 22.4 µM | SF-268 > 100 µM | SK-MEL-5 > 100 µM | SF-539 > 10 µM
> 100 µM: HCT-15

COc1cc2c(cc1Oc1c(Oc3c(O)c(OC)cc4c3C(CC(C)C)N(C)CC4)c(OC)cc3c1C(CC(C)C)N(C)CC3)C(CC(C)C)N(C)CC2 (stereo not drawn)
active: U-251 0.492 µM | SK-OV-3 1.12 µM | SNB-75 0.611 µM | NCI-H460 0.519 µM | NCI-H522 0.458 µM | LOX IMVI 0.931 µM | HOP-62 0.533 µM | MOLT-4 1.03 µM | SNB-19 0.582 µM | SK-MEL-2 0.867 µM | COLO 205 0.351 µM | HCC 2998 0.92 µM | NCI-H23 0.787 µM | RXF 393 0.495 µM | HOP-92 0.465 µM | KM-20L2 0.698 µM | CAKI-1 0.575 µM | OVCAR-8 0.618 µM | Malme-3M 1.11 µM | A549 0.429 µM | SK-MEL-28 0.897 µM | M19-MEL 0.515 µM | A498 0.152 µM | SF-295 0.904 µM | HT-29 0.547 µM | SW-620 0.879 µM | CCRF-CEM 0.8 µM | UACC-62 0.573 µM | NCI-H226 0.422 µM | KM12 0.721 µM | K562 1.02 µM | MCF7 0.632 µM | HCT-116 0.643 µM | DMS-114 0.838 µM | SN12C 0.577 µM | EKVX 0.528 µM | SK-MEL-5 0.375 µM | SF-539 0.376 µM
inactive: IGROV-1 3.02 µM | HL-60 3.03 µM | SNB-78 1.13 µM | OVCAR-3 1.12 µM | UO-31 3.95 µM | NCI/ADR-RES 2.38 µM | OVCAR-4 1.12 µM | UACC-257 1.45 µM | HOP-18 1.67 µM | OVCAR-5 5.11 µM | RPMI-8226 2.34 µM | DLD-1 1.76 µM | DMS-273 1.18 µM | SF-268 1.51 µM
1.81 µM: HCT-15
